Patent US12344879B2, “Transgenic bacteria with expanded amino acid usage and nucleic acid molecules for use in the same” (BOARD OF REGENTS, THE UNIVERSITY OF TEXAS SYSTEM, priority 2015, dated 2025)

B1: FdhH U140S: E. coli formate dehydrogenase H with serine in place of selenocysteine 140 (protein, UniProt P07658 1-715, looked up, variant U140S)
Formate dehydrogenase H: MKKVVTVCPYCASGCKINLVVDNGKIVRAEAAQGKTNQGTLCLKGYYGWDFINDTQILTPRLKTPMIRRQRGGKLEPVSWDEALNYVAERLSAIKEKYGPDAIQTTGSSRGTGNETNYVMQKFARAVIGTNNVDCCARVSHGPSVAGLHQSVGNGAMSNAINEIDNTDLVFVFGYNPADSHPIVANHVINAKRNGAKIIVCDPRKIETARIADMHIALKNGSNIALLNAMGHVIIEENLYDKAFVASRTEGFEEYRKIVEGYTPESVEDITGVSASEIRQAARMYAQAKSAAILWGMGVTQFYQGVETVRSLTSLAMLTGNLGKPHAGVNPVRGQNNVQGACDMGALPDTYPGYQYVKDPANREKFAKAWGVESLPAHTGYRISELPHRAAHGEVRAAYIMGEDPLQTDAELSAVRKAFEDLELVIVQDIFMTKTASAADVILPSTSWGEHEGVFTAADRGFQRFFKAVEPKWDLKTDWQIISEIATRMGYPMHYNNTQEIWDELRHLCPDFYGATYEKMGELGFIQWPCRDTSDADQGTSYLFKEKFDTPNGLAQFFTCDWVAPIDKLTDEYPMVLSTVREVGHYSCRSMTGNCAALAALADEPGYAQINTEDAKRLGIEDEALVWVHSRKGKIITRAQVSDRPNKGAIYMTYQWWIGACNELVTENLSPITKTPEYKYCAVRVEPIADQRAAEQYVIDEYNKLKTRLREAALA
B2: tRNA^UG: tRNA^Sec derivative with strong EF-Tu binding region from the major E. coli tRNA^Gly (nucleic acid)
chain: GGAAGATGGTCGTCTCCGGTGAGGCGGCTGGACTCTAAATCCAGTTGGGGCCGCCAGCGGTCCCGGCGAGGTTCGACTCCTCGTATCTTCCGCCA
modifications: expressed or natural sequence

How the values were obtained:
[1] = system: NMC-A β-lactamase reporter (C69X); assay: NMC-A β-lactamase reporter assay (ampicillin resistance by amber suppression with selenocysteine); type: cell-based, E. coli DHΔabc; settings: NMC-A C69X reporter, DHΔabc
Source text: A method of genetic selection capable of discriminating different levels of selenocysteine incorporation was developed. To specifically ‘addict’ a reporter protein to selenocysteine rather than serine, the NMC-A β-lactamase from Enterobacter cloacae was used. […] Then cysteine 69 was replaced with an amber stop codon (X69; FIG. 1a) for library selection, hypothesizing that the incorporation of selenocysteine and the formation of a selenyl-sulfhydryl bond would restore activity. (Swardn et al., 1998)
To eliminate any crosstalk between the tRNA^Sec library and the endogenous selenocysteine incorporation machinery, the selA, selB and selC genes (encoding SelA, SelB and tRNA^Sec respectively) were deleted from E. coli DH10B (designated DHΔabc). Cells containing the reporter plasmid pNMC-A C69X and the accessory plasmid pRSF-eSelA (expressing SelA) were transformed with plasmid pMB1-ZU containing the tRNA^Sec antideterminant library. Transformants were plated on media containing a gradient of ampicillin concentrations for selection of mutants capable of selenocysteine-specific suppression. The single colonies that arose covered a range of ampicillin concentrations. […] Of these tRNA^Sec variants, only G7-C66:U49-G65:C50-U64 was detected at the two highest ampicillin concentration (200 and 250 μg·ml^−1).
The tRNA^Sec antideterminant library was generated by enzymatic inverse PCR using oligonucleotide primers (Table 2) to randomize the six positions identified as the main antideterminant for EF-Tu binding. Following self ligation for 16 hours, DNA was ethanol precipitated with GlycoBlue (Ambion) and transformed by electroporation into E. coli DHΔabc containing the plasmids pNMC-A C69X and pRSF-eSelA. Transformants were diluted in 200 ml LB medium containing 12.5 μg·mL^−1 Zeocin, 6.25 μg·mL^−1 tetracycline and 25 μg·mL^−1 kanamycin and incubated overnight. Following overnight growth, cells were diluted 1/50 in LB medium containing 6.25 μg·mL^−1 Zeocin, 3.75 μg·mL^−1 tetracycline, 12.5 μg·mL^−1 kanamycin, 1 μM Na2SeO3 and 20 μg·mL^−1 L-cysteine and incubated for one hour. A series of 250 μl aliquots of cells were plated on LB agar containing 6.25 μg·mL^−1 Zeocin, 3.75 μg·mL^−1 tetracycline, 12.5 […], 1 μM Na2SeO3 and 20 μg·mL^−1 L-cysteine and 50-300 μg·mL^−1 ampicillin in 50 μg·mL^−1 increments. After 20 hours at 37° C. individual colonies were observed on plates containing 50-200 μg·mL^−1 ampicillin. Plasmid DNA was isolated from a selection of colonies from all plates and tRNA^Sec mutations determined by Sanger sequencing.
NotI/NcoI fragments containing tRNA^SecUx were subcloned into pRSF-eSelA to generate pRSF-UX-eSelA. pRSF-U-eSelA variants described in Table 1 were transformed into E. coli DHΔabc containing the reporter plasmid pNMC-A C69TAG. DHΔabc cells containing pNMC-A and pRSFDuet-1 were used as a positive control. DHΔabc cells harboring pNMC-A C69S and pRSF-UX-eSelA, and pNMC-A C69TAG and pRSF-UX-ΔSelA were used as controls for selenocysteine dependent β-lactamase activity. Transformants were cultured overnight in LB medium containing 6.25 μg·mL^−1 tetracycline, 25 μg·mL^−1 kanamycin, 1 μM Na2SeO3 and 20 […]. Following overnight growth, cells were diluted 1/10 in LB medium containing antibiotics, selenite and L-cysteine and incubated for three hours. […]

[2] = system: human cellular glutathione peroxidase (GPx-1) codon 49; assay: Selenocysteine incorporation into GPx-1 U49 by intact mass spectrometry; set-up: species or system E. coli RTΔA.2; settings: GPx-1 U49, pGPx-U49-AU and pRSF-eSelAK
Experimental: RTΔA.2 transformants containing pGPx-U49-AU and pRSF-eSelAK were cultured as described previously for azurin. Cells were harvested by centrifugation and resuspended in 50 mL of buffer (50 mM Potassium Phosphate, 150 mM NaCl, 10% glycerol, 1 mM DTT at pH 8.0) and lysozyme at 1 mg·mL^−1. Cells were lysed by sonication and clarified prior to GPx-1 recovery by IMAC. Eluate was concentrated and dialyzed against 100 mM phosphate buffer pH 8.0, 0.1% Tween 20 and 1 mM DTT followed by isolation of GPx-1 by anion exchange chromatography (Q HP column). GPx-1 was produced with a yield of 500 μg·L^−1 and close to 100% selenocysteine incorporation efficiency.
Intact protein samples were analyzed using methods described previously (Ellefson et al., 2014). Azurin, DHFR and GPx-1 samples were buffer exchanged into LC-MS grade water using 10 kDa molecular weight cutoff filters. Once the buffer exchange was complete the samples were diluted to 20 μM in a methanol/water/formic acid (50/49/1) solution. […] UVPD mass spectra were also deconvoluted using Xtract and then analyzed using ProsightPC 3.0. […] Incorporation efficiencies were calculated by dividing the area of the modified protein peak by the summed areas of the unmodified protein peak and the modified protein peak. […]

[3] = system: E. coli formate dehydrogenase H (FdhH); assay: Benzyl viologen assay; type: cell-based, E. coli DHΔabcF; settings: FdhH U140TAG or U140S reporter, co-expressed with SelA, anaerobic
Experimental: The tRNA^Sec variant containing the G7-C66:U49-G65:C50-U64 (SEQ ID NO: 18) antideterminant sequence was designated tRNA^SecUx and was compared with the previously designed chimera (tRNA^UTu) and with a tRNA^Sec derivative designed to have an antideterminant region that should tightly bind EF-Tu (tRNA^UG; FIG. 2a). […] The hybrid tRNA^UTu incorporated selenocysteine and could grow on 75 μg·ml^−1. […] To further confirm tRNA^SecUx incorporated selenocysteine in response to amber stop codons, a standard colorimetric assay was employed based on the activity of the endogenous E. coli selenoprotein formate dehydrogenase H (FdhH) (FIG. 2b).
E. coli DH10B cells containing pRSFDuet-1 and pcat-pheS were used as a positive control. DHΔabcF cells harboring p15A-fdhF U140S and pRSF-UX-eSelA, and p15A-fdhF U140X and pRSF-UX-ΔSelA were used as controls for selenocysteine dependent formate dehydrogenase activity. Transformants were grown overnight at 37° C. in LB medium supplemented with 12.5 μg·mL^−1 tetracycline and 50 μg·mL^−1 kanamycin. Overnight cultures were diluted 1/20 in a final volume of 2 ml and incubated for three hours. Cultures were normalized to OD600=0.5 and 5 μl aliquots were dotted on LB agar plates containing 3.75 μg·mL^−1 tetracycline, 12.5 μg·mL^−1 kanamycin, 5 mM sodium formate, 10 μM Na2MoO4, 1 μM Na2SeO3 and 20 μg·mL^−1 L-cysteine. Plates were incubated at 37° C. for 3 h under aerobic conditions and then transferred to anaerobic conditions at 37° C. for 60 h. Upon removal from the anaerobic chamber, plates were immediately overlaid with agar containing 1 mg·mL^−1 benzyl viologen, 250 mM sodium formate and 25 mM KH2PO4 at pH 7.0. Plates were photographed within 1 h of overlaying.

| Molecule | production of active β-lactamase [1] | other results |
| --- | --- | --- |
| tRNA^SecCUA: Parental E. coli tRNA^Sec containing a CUA anticodon [reference compound] | failed to produce active β-lactamase |  |
| GPx-1: Recombinant human cellular glutathione peroxidase with selenocysteine at codon 49 |  | selenocysteine incorporation efficiency in GPx-1 [2]: ~100% |
| B1 |  | FdhH activity (reduction of benzyl viologen) [3]: completely inactive |
| B2 | failed to produce active β-lactamase |  |
